Experimental data: patent US12691112B2, “FGFR tyrosine kinase inhibitors for the treatment of urothelial carcinoma” (Janssen Pharmaceutica NV, priority 2019, dated 2026)
Where “and” joins values, the source holds several entries; their conditions need not be identical. Equal entries are not always repeated.

How the values were obtained:
[1] = system: metastatic or surgically unresectable urothelial cancer harboring select FGFR genetic alterations; experiment: Phase 2 study NCT02365597: tumor response per independent radiographic review committee (BIRC); type: in vivo, human
Method: Patients were contacted every 12 weeks for survival assessment.
The study was designed to enroll 180 patients with specified FGFR alterations. Of these, ≥88 were required in the selected regimen. […] Responses were assessed by investigators and an independent radiological review committee. Progression-free survival and overall survival were estimated using Kaplan-Meier product limit method. Data from patients who were progression free and alive or with unknown status were censored at last tumor assessment. Efficacy end points were analysed at primary analysis cut-off.

serum phosphate = experiment: Pharmacodynamics: serum phosphate; type: in vivo, human; conditions: consequence of FGFR inhibition
From the text: To manage phosphate elevation, phosphate binders were permitted. Avoid concomitant use with agents that can alter serum phosphate levels before the initial dose increase period based on serum phosphate levels.

[2] = Effect of food on pharmacokinetics in healthy subjects; type: in vivo, human; conditions: high-fat and high-calorie meal
[3] = human, in vivo
[4] = Regimen 3, 8 mg continuous (n=99)
[5] = Regimen 3, chemotherapy-refractory patients, N = 87

For `COc1cc(OC)cc(N(CCNC(C)C)c2ccc3ncc(-c4cnn(C)c4)nc3c2)c1` [erdafitinib, N-(3,5-dimethoxy-phenyl)-N′-(1-methylethyl)-N-[3-(1-methyl-1H-pyrazol-4-yl)quinoxalin-6-yl]ethane-1,2-diamine], the “Complete response rate per independent radiographic review committee” value [1, 4] was 3 (3.0) %, the “Objective response rate per independent radiographic review committee” value [1, 4] was 34.3% and 34 (34.3) % and the “Partial response per independent radiographic review committee” value [1, 4] was 31 (31.3) %. The “Complete response (CR), BIRC assessment” value [1, 5] was 2.3%, the “Median DoR (95% CI), BIRC assessment” value [1, 5] was 5.4 (4.2, 6.9) months and the “ORR (95% CI), BIRC assessment” value [1, 5] was 32.2% and 32.2 (22.4, 42.0) %. For the same compound, the “Partial response (PR), BIRC assessment” value [1, 5] was 29.9%, the “ORR (95% CI), BIRC assessment” value ([1]; Regimen 3, chemotherapy-refractory, FGFR3 fusion, N = 18) was 11.1 (0, 25.6) % and the “effect on serum phosphate level” value (serum phosphate) was “increased serum phosphate level”. For the same compound, the “effect of food on pharmacokinetics” value [2] was “No clinically meaningful differences”, the “circulating metabolites in plasma” value [3] was “no circulating metabolites” and the “exposure (Cmax and AUC) versus dose” value [3] was “increased proportionally”. The “mean total apparent clearance (CL/F)” value [3] was 0.362 L/h, the “pharmacokinetics in specific populations” value [3] was “No clinically meaningful trends” and the “time to steady state” value [3] was 2 weeks.
